Assay results as given in PubChem BioAssay AID1963858 (Molecular Pharmacology Branch, DTP, NCI, 2024).

Test system: HOP-62 multicell spheroids with HUVEC/MSC, viability
Experiment: Anticancer human tumor HOP-62 cell line growth inhibition [KRAS2];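 also: viability read after a week of compound exposure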;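 as to viability, T/C: 100% = DMSO vehicle-treated spheroids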
Conditions: for IC50: curve of first compound; for viability, T/C: stronger effect = lower value
Procedure, shortened: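 Combination screen of spheroid viability in tumor-cell co-cultures with endothelial (HUVEC) and mesenchymal stem cell stroma. Each agent was tested in half-log dilutions, topping at clinical Cmax or at 10 microM without a known Cmax.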

[1] = second compound 0.1 µM, first compound 0.000316 µM
[2] = second compound 0.1 µM, first compound 0.001 µM
[3] = second compound 0.1 µM, first compound 0.00316 µM
[4] = second compound 0.1 µM, first compound 0.01 µM
[5] = second compound 0.1 µM, first compound 0.0316 µM
[6] = second compound 0.1 µM, first compound 0.1 µM
[7] = second compound 0.316 µM, first compound 0.000316 µM
[8] = second compound 0.316 µM, first compound 0.001 µM
[9] = second compound 0.316 µM, first compound 0.00316 µM
[10] = second compound 0.316 µM, first compound 0.01 µM
[11] = second compound 0.316 µM, first compound 0.0316 µM
[12] = second compound 0.316 µM, first compound 0.1 µM
[13] = second compound 1 µM, first compound 0.000316 µM
[14] = second compound 1 µM, first compound 0.001 µM
[15] = second compound 1 µM, first compound 0.00316 µM
[16] = second compound 1 µM, first compound 0.01 µM
[17] = second compound 1 µM, first compound 0.0316 µM
[18] = second compound 1 µM, first compound 0.1 µM
[19] = second compound 3.16 µM, first compound 0.000316 µM
[20] = second compound 3.16 µM, first compound 0.001 µM
[21] = second compound 3.16 µM, first compound 0.00316 µM
[22] = second compound 3.16 µM, first compound 0.01 µM
[23] = second compound 3.16 µM, first compound 0.0316 µM
[24] = second compound 3.16 µM, first compound 0.1 µM
[25] = second compound 10 µM, first compound 0.000316 µM
[26] = second compound 10 µM, first compound 0.001 µM
[27] = second compound 10 µM, first compound 0.00316 µM
[28] = second compound 10 µM, first compound 0.01 µM
[29] = second compound 10 µM, first compound 0.0316 µM
[30] = second compound 10 µM, first compound 0.1 µM

CC(C)n1nc(-c2ccc3oc(N)nc3c2)c2c(N)ncnc21 + C=CC(=O)N1CCN(c2nc(=O)n(-c3c(C)ccnc3C(C)C)c3nc(-c4c(O)cccc4F)c(F)cc23)C(C)C1
IC50 (second compound 0.1 µM): < 0.316 nM
IC50 (second compound 0.316 µM): 0.36 nM
IC50 (second compound 1 µM): 0.592 nM
IC50 (second compound 3.16 µM): 0.671 nM
IC50 (second compound 10 µM): < 0.316 nM
viability, T/C [1]: 42.3%
viability, T/C [2]: 33.4%
viability, T/C [3]: 19.2%
viability, T/C [4]: 15.4%
viability, T/C [5]: 10.2%
viability, T/C [6]: 8.15%
viability, T/C [7]: 51.1%
viability, T/C [8]: 41%
viability, T/C [9]: 25.3%
viability, T/C [10]: 14.2%
viability, T/C [11]: 11.4%
viability, T/C [12]: 8.53%
viability, T/C [13]: 62.8%
viability, T/C [14]: 38.9%
viability, T/C [15]: 25.5%
viability, T/C [16]: 15.3%
viability, T/C [17]: 11%
viability, T/C [18]: 8.43%
viability, T/C [19]: 60.2%
viability, T/C [20]: 43.8%
viability, T/C [21]: 31.9%
viability, T/C [22]: 18.6%
viability, T/C [23]: 12.4%
viability, T/C [24]: 8.73%
viability, T/C [25]: 36.9%
viability, T/C [26]: 28.8%
viability, T/C [27]: 25%
viability, T/C [28]: 16.2%
viability, T/C [29]: 11.8%
viability, T/C [30]: 9.42%

CC(C)n1nc(-c2ccc3oc(N)nc3c2)c2c(N)ncnc21 + CNCc1ccccc1-c1csc(C(C)Nc2nc(C)nc3cc(OC)c(OC)cc23)c1
IC50 (second compound 0.1 µM): 4.45 nM
IC50 (second compound 0.316 µM): 2.24 nM
IC50 (second compound 1 µM): 1.78 nM
IC50 (second compound 3.16 µM): < 0.316 nM
IC50 (second compound 10 µM): < 0.316 nM
viability, T/C [1]: 113%
viability, T/C [2]: 86.7%
viability, T/C [3]: 57.9%
viability, T/C [4]: 32.5%
viability, T/C [5]: 22.2%
viability, T/C [6]: 15.9%
viability, T/C [7]: 89.5%
viability, T/C [8]: 69.2%
viability, T/C [9]: 40.2%
viability, T/C [10]: 27.9%
viability, T/C [11]: 19.5%
viability, T/C [12]: 15.9%
viability, T/C [13]: 75.9%
viability, T/C [14]: 63.1%
viability, T/C [15]: 35.3%
viability, T/C [16]: 28.9%
viability, T/C [17]: 17.3%
viability, T/C [18]: 14.1%
viability, T/C [19]: 0.36%
viability, T/C [20]: 0.49%
viability, T/C [21]: 0.36%
viability, T/C [22]: 0.46%
viability, T/C [23]: 2.66%
viability, T/C [24]: 0.67%
viability, T/C [25]: 0.46%
viability, T/C [26]: 0.4%
viability, T/C [27]: 0.42%
viability, T/C [28]: 0.42%
viability, T/C [29]: 0.38%
viability, T/C [30]: 0.52%

CC1OCC2(CCN(c3cnc(Sc4ccnc(N)c4Cl)c(N)n3)CC2)C1N (stereo not given) + C=CC(=O)N1CCN(c2nc(OCC3CCCN3C)nc3c2CCN(c2cccc4cccc(C)c24)C3)CC1CC#N
IC50 (second compound 0.0316 µM): 69.7 nM
IC50 (second compound 0.1 µM): 36.8 nM
IC50 (second compound 0.316 µM): < 31.6 nM
IC50 (second compound 1 µM): < 31.6 nM
IC50 (second compound 3.16 µM): < 31.6 nM
viability, T/C (second compound 0.0316 µM, first compound 0.0316 µM): 54.3%
viability, T/C (second compound 0.0316 µM, first compound 0.1 µM): 49.1%
viability, T/C (second compound 0.0316 µM, first compound 0.316 µM): 27%
viability, T/C (second compound 0.0316 µM, first compound 1 µM): 19.5%
viability, T/C (second compound 0.0316 µM, first compound 3.16 µM): 11.9%
viability, T/C (second compound 0.0316 µM, first compound 10 µM): 12.7%
viability, T/C [5]: 53.5%
viability, T/C [6]: 29.1%
viability, T/C (second compound 0.1 µM, first compound 0.316 µM): 19.9%
viability, T/C (second compound 0.1 µM, first compound 1 µM): 12.8%
viability, T/C (second compound 0.1 µM, first compound 3.16 µM): 11.5%
viability, T/C (second compound 0.1 µM, first compound 10 µM): 12.2%
viability, T/C [11]: 40%
viability, T/C [12]: 30.7%
viability, T/C (second compound 0.316 µM, first compound 0.316 µM): 13.9%
viability, T/C (second compound 0.316 µM, first compound 1 µM): 10.5%
viability, T/C (second compound 0.316 µM, first compound 3.16 µM): 10.2%
viability, T/C (second compound 0.316 µM, first compound 10 µM): 10.6%
viability, T/C [17]: 24%
viability, T/C [18]: 16%
viability, T/C (second compound 1 µM, first compound 0.316 µM): 11.8%
viability, T/C (second compound 1 µM, first compound 1 µM): 8.98%
viability, T/C (second compound 1 µM, first compound 3.16 µM): 7.63%
viability, T/C (second compound 1 µM, first compound 10 µM): 7.61%
viability, T/C [23]: 4.76%
viability, T/C [24]: 1.76%
viability, T/C (second compound 3.16 µM, first compound 0.316 µM): 1.12%
viability, T/C (second compound 3.16 µM, first compound 1 µM): 0.88%
viability, T/C (second compound 3.16 µM, first compound 3.16 µM): 0.72%
viability, T/C (second compound 3.16 µM, first compound 10 µM): 0.51%
